Here are results for three molecules from BindingDB's records for doi:10.1016/j.bmcl.2007.02.075 (Bayer Research Center, 2007).

The structures appear in SMILES notation.

Broadly, the IC50 is the midpoint of a concentration-inhibition curve. A high value points to weaker potency in that assay.

The assay deals with RAC-alpha serine/threonine-protein kinase (Homo sapiens, UniProt P31749). Put plainly: Inhibition of pAkt.
RAC-alpha serine/threonine-protein kinase, sequence (P31749 whole entry): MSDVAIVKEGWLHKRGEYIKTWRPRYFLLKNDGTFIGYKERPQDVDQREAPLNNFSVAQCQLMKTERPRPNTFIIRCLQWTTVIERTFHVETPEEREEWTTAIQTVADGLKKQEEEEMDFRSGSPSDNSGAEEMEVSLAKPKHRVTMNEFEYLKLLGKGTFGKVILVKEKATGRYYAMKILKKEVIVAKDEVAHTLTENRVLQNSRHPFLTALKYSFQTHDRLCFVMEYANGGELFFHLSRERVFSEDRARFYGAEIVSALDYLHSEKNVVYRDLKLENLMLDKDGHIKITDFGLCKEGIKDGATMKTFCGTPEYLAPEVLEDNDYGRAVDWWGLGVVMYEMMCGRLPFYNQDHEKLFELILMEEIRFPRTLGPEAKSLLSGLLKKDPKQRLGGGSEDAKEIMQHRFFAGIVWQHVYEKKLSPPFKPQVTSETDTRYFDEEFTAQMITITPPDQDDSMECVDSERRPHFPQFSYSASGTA

As to `CCNC(=O)Nc1ccc(CNc2ncsc2C(=O)Nc2ccc3c(c2)OC(F)(F)O3)cn1` [1-(5-((5-((2,2-difluorobenzo[d][1,3]dioxol-5-yl)carbamoyl)thiazol-4-ylamino)methyl)pyridin-2-yl)-3-ethylurea], the 50% inhibitory concentration (IC50) turned out to be 81 nM.

In turn, `CNC(=O)Nc1ccc(CNc2ncsc2C(=O)Nc2ccc3c(c2)OC(F)(F)O3)cn1` [1-(5-((5-((2,2-difluorobenzo[d][1,3]dioxol-5-yl)carbamoyl)thiazol-4-ylamino)methyl)pyridin-2-yl)-3-methylurea] registered an IC50 of 24 nM.

In turn, `CNC(=O)Nc1ccc(CNc2c(C(=O)Nc3ccc(SC(F)(F)F)cc3)cnn2C)cn1` [1-methyl-3-(5-((1-methyl-4-((4-(trifluoromethylthio)phenyl)carbamoyl)-1H-pyrazol-5-ylamino)methyl)pyridin-2-yl)urea] had an IC50 of 15 nM.
